Results reported in patent publication US20250099548A1, “PHARMACEUTICAL COMPOSITION FOR PREVENTING OR TREATING DEGENERATIVE BRAIN DISEASES, CONTAINING GLUCAGON-LIKE PEPTIDE-1 AND INTERLEUKIN-1 RECEPTOR ANTAGONIST” (GI INNOVATION, INC., priority 2022, published 2025).

System: Tg-APP/PS1 mice
Test: Ki-67 staining of hippocampal DG region
Type: in vivo, mouse
Conditions: Example 1; GI210B1 1.2 mg/kg intraperitoneal, 4 times for 2 weeks
Excerpt: Ki-67 is a protein expressed in the nucleus during cell division.
In order to confirm the effect of GI210B1 on the decreased neurogenesis in the DG region of the hippocampus of Tg mice, the Tg-APP/PS1 mice administered with GI210B1 (Tg+GI210B1), the wild type mice (WT) as a normal group, and the Tg-APP/PS1 mice (Tg) as a control group were sacrificed, and then the brain was extracted, and the DG region of the hippocampus was fluorescently stained with Ki-67.

Substance: GI210B1: fusion protein dimer comprising GLP-1 (SEQ ID NO: 2), IgG4 Fc domain and IL-1Ra; SEQ ID NO: 10
- number of Ki-67 positive cells in the DG region of the hippocampus: increased compared to the Tg-APP/PS1 mice (Tg), which was a level similar to that of the normal group (WT)
